Reference: US7261876B2, “Multivalent constructs for therapeutic and diagnostic applications” (Bracco International BV, priority 2002, dated 2007)
Read-outs that look alike come from different tables or passages of the source. Positions of bridges follow the written chain, without caps; N, C: chain ends. Non-standard residues stand in square brackets, D forms with d. Residues, ends and D or L forms follow the SMILES beside them. Lys(ivDde) = CC(C)CC(NCCCC[C@H](N)C(=O)O)=C1C(=O)CC(C)(C)CC1=O

Biological target: T1, KDR (Homo sapiens, UniProt P35968)
T1 construct: host or cells: HUVEC
Test: VEGF-induced KDR receptor activation (phosphorylation) assay in HUVECs
Assay type: cell-based
Conditions: for inhibition at 10 µM: HUVEC, read-out: inhibition of VEGF-induced KDR phosphorylation
Excerpt: Human umbilical vein endothelial cells (HUVECs) (Biowhittaker Cat No. CC-2519) were obtained frozen on dry ice and stored in liquid nitrogen until thawing. These cells were thawed, passaged, and maintained as described by the manufacturer in EGM-MV medium (Biowhittaker Cat No. CC-3125). Cells seeded into 100 mm dishes were allowed to become confluent, then cultured overnight in basal EBM medium lacking serum (Biowhittaker Cat No. CC-3121). The next morning, the medium in the dishes was replaced with 10 mL fresh EBM medium at 37° C. containing either no additive (negative control), 5 ng/mL VEGF (Calbiochem Cat No. 676472 or Peprotech Cat No. 100-20) (positive control), or 5 ng/mL VEGF plus the indicated concentration of the KDR-binding peptide (prepared as described above). In some cases, a neutralizing anti-KDR antibody (Cat No. AF357, R&D Systems) was used as a positive control inhibitor of activation. In such cases, the antibody was pre-incubated with the test cells for 30 min at 37° C. prior to the addition of fresh medium containing both VEGF and the antibody. After incubating the dishes 5 min in a 37° C. tissue culture incubator they were washed three times with ice-cold Dulbecco's phosphate buffered saline (D-PBS) containing calcium and magnesium and placed on ice without removing the last 10 mL of D-PBS. The first dish of a set was drained and 0.5 mL of Triton lysis buffer was added (20 mM Tris base pH 8.0, 137 mM NaCl, 10% glycerol, 1% Triton X-100, 2 mM EDTA (ethylenediaminetetraacetic acid), 1 mM PMSF (phenylmethylsulfonylfluoride), 1 mM sodium orthovanadate, 100 mM NaF, 50 mM sodium pyrophosphate, 10 μg/mL leupeptin, 10 μg/mL aprotinin). The cells were quickly scraped into the lysis buffer using a cell scraper (Falcon, Cat No. 353087), dispersed by pipeting up and down briefly, and the resulting lysate was transferred to the second drained dish of the pair. Another 0.5 mL of lysis buffer was used to rinse out the first dish then transferred to the second dish, which was then also scraped and dispersed. The pooled lysate from the two dishes was transferred to a 1.5 mL Eppindorf tube. The above procedure was repeated for each of the controls and test samples (KDR-binding peptides), one at a time. The lysates were stored on ice until all the samples had been processed. At this point samples were either stored at −70° C. or processed to the end of the assay without interruption.
The lysates, either freshly prepared or frozen and thawed, were precleared by adding 20 μL of protein A-sepharose beads (Sigma 3391, preswollen in D-PBS), washed three times with a large excess of D-PBS, reconstituted with 6 mL D-PBS to generate a 50% slurry) and rocked at 4° C. for 30 min. The beads were pelleted by centrifugation for 2 min in a Picofuge (Stratgene, Cat No. 400550) at 2000×g and the supernatants transferred to new 1.5 mL tubes. 20 μg of anti-Flk-1 antibody (Santa Cruz Biotechnology, Cat No. sc-504) was added to each tube, and the tubes were incubated overnight (16–18 h) at 4° C. on a rotator to immunoprecipitate KDR. The next day 40 μL of protein A-sepharose beads were added to the tubes, which were then incubated at 4° C. for 1 h on a rotator. The beads in each tube were subsequently washed three times by centrifuging for 2 min in a Picofuge, discarding the supernatant, and dispersing the beads in 1 mL freshly added TBST buffer (20 mM Tris base pH 7.5, 137 mM NaCl, and 0.1% Tween 20). After centrifuging and removing the liquid from the last wash, 40 μL of Laemmli SDS-PAGE sample buffer (Bio-Rad, Cat No. 161-0737) was added to each tube and the tubes were capped and boiled for 5 min. After cooling, the beads in each tube were pelleted by centrifuging and the supernatants containing the immunoprecipitated KDR were transferred to new tubes and used immediately or frozen and stored at −70° C. for later analysis.
Detection of phosphorylated KDR as well as total KDR in the immunoprecipitates was carried out by immunoblot analysis. […]

T1 sequence (P35968 20-1356): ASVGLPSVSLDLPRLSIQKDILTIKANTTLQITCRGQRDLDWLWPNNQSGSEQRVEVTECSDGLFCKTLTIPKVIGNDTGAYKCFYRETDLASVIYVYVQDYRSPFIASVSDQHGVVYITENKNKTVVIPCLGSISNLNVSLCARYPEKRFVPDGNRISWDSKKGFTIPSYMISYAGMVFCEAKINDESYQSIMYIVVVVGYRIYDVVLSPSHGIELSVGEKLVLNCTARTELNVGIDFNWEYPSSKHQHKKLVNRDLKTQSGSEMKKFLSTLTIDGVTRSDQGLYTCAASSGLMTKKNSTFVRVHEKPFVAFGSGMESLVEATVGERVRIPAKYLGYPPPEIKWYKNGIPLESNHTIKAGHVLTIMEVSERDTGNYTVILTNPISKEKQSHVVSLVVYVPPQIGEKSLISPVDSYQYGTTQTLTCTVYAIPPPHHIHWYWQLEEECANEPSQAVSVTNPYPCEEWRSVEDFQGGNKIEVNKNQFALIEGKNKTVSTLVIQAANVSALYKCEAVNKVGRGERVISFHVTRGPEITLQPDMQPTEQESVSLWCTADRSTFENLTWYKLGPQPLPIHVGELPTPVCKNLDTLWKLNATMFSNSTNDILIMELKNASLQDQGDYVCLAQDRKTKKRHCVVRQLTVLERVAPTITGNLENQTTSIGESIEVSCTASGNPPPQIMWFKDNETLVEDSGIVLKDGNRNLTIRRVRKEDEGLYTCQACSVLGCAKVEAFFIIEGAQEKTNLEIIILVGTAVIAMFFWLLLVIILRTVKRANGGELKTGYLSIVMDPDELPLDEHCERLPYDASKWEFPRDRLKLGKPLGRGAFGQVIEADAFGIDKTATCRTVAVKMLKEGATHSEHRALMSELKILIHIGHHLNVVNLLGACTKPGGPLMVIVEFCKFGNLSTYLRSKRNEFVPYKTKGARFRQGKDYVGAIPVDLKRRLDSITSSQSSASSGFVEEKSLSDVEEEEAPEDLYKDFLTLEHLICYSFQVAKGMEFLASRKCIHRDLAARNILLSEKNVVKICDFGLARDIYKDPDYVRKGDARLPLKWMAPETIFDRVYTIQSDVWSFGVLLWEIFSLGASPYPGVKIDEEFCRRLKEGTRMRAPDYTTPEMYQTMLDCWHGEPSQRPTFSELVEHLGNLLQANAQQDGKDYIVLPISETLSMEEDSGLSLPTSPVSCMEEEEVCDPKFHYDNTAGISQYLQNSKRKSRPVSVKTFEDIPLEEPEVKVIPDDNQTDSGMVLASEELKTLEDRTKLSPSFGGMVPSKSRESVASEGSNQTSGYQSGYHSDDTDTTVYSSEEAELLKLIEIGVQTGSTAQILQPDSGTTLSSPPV

| Compound | inhibition of KDR activation (10 μM) | further results |
| --- | --- | --- |
| CC[C@H](C)[C@@H]1NC(=O)CNC(=O)[C@H](CC(=O)O)NC(=O)[C@@H]2CCCN2C(=O)[C@H](Cc2c[nH]cn2)NC(=O)[C@H](Cc2ccc(O)cc2)NC(=O)[C@@H](NC(=O)[C@H](CCC(=O)O)NC(=O)[C@@H](NC(=O)[C@H](Cc2c[nH]c3ccccc23)NC(=O)CNC(=O)[C@H](C)NC(C)=O)[C@@H](C)CC)CSSC[C@@H](C(=O)N[C@@H](Cc2ccc(O)cc2)C(=O)N[C@@H](Cc2c[nH]cn2)C(=O)N[C@@H](Cc2ccccc2)C(=O)NCC(=O)N[C@H](C(=O)NCC(=O)NCC(=O)NCC(=O)N[C@@H](CCCCN)C(N)=O)[C@@H](C)O)NC1=O [P2-D] (Ac-AGWIECYHPDGICYHFGTGGGK-NH2; disulfide 6-13) |  | inhibition at 10 µM: ≥ 50% |
| CC(=O)N[C@@H](C)C(=O)NCC(=O)N[C@@H](Cc1c[nH]c2ccccc12)C(=O)N[C@@H](CC(C)C)C(=O)N[C@@H](CCC(=O)O)C(=O)N[C@H]1CSSC[C@@H](C(=O)N[C@@H](Cc2ccc(O)cc2)C(=O)N[C@@H](CC(N)=O)C(=O)N[C@@H](Cc2ccccc2)C(=O)NCC(=O)N[C@H](C(=O)NCC(=O)NCC(=O)NCC(=O)N[C@@H](CCCCN)C(N)=O)[C@@H](C)O)NC(=O)[C@H](Cc2c[nH]cn2)NC(=O)CNC(=O)[C@H](Cc2ccccc2)NC(=O)[C@H](CCC(=O)O)NC(=O)[C@H](C)NC(=O)[C@H](Cc2ccc(O)cc2)NC1=O [P3-D] (Ac-AGWLECYAEFGHCYNFGTGGGK-NH2; disulfide 6-13) |  | inhibition at 10 µM (10 μM): ≥ 50% |
| CSCC[C@@H]1NC(=O)[C@H]([C@@H](C)O)NC(=O)[C@@H](NC(=O)[C@@H](NC(=O)[C@H](CC(=O)O)NC(=O)[C@@H]2CCCN2C(=O)[C@H](CC(=O)O)NC(=O)CNC(C)=O)[C@@H](C)O)CSSC[C@@H](C(=O)N[C@@H](Cc2ccccc2)C(=O)N2CCC[C@H]2C(=O)N[C@@H](C)C(=O)N[C@@H](CC(=O)O)C(=O)N2CCC[C@H]2C(=O)NCC(=O)NCC(=O)NCC(=O)N[C@@H](CCCCN)C(N)=O)NC(=O)[C@H](Cc2ccc(O)cc2)NC(=O)[C@H](Cc2c[nH]c3ccccc23)NC(=O)[C@H](CCCNC(=N)N)NC(=O)CNC(=O)[C@H](CO)NC(=O)[C@H](CC(=O)O)NC(=O)CNC(=O)[C@H](Cc2c[nH]c3ccccc23)NC1=O [P8-D] (Ac-GDPDTCTMWGDSGRWYCFPADPGGGK-NH2; disulfide 6-17) |  | inhibition at 10 µM: ≥ 50% |
| CC[C@H](C)[C@@H]1NC(=O)[C@H](Cc2c[nH]c3ccccc23)NC(=O)[C@H](CCC(N)=O)NC(=O)CNC(=O)[C@H](CC(N)=O)NC(=O)[C@H](Cc2c[nH]cn2)NC(=O)[C@H](CC(C)C)NC(=O)[C@H](Cc2ccc(O)cc2)NC(=O)[C@@H](NC(=O)[C@H](Cc2c[nH]cn2)NC(=O)[C@H](Cc2c[nH]cn2)NC(=O)[C@H](CC(=O)O)NC(=O)[C@H](CO)NC(=O)CNC(C)=O)CSSC[C@@H](C(=O)N[C@@H](Cc2ccc(O)cc2)C(=O)N2CCC[C@H]2C(=O)N[C@@H](Cc2ccccc2)C(=O)N[C@@H](C)C(=O)N2CCC[C@H]2C(=O)NCC(=O)NCC(=O)NCC(=O)N[C@@H](CCCCN)C(N)=O)NC1=O [P14-D] (Ac-GSDHHCYLHNGQWICYPFAPGGGK-NH2; disulfide 6-15) | did not produce significant inhibition of KDR activation |  |
| CC(=O)NCC(=O)N[C@@H](CC(=O)O)C(=O)N[C@@H](Cc1ccc(O)cc1)C(=O)N1CCC[C@H]1C(=O)N[C@@H](Cc1c[nH]c2ccccc12)C(=O)N[C@H]1CSSC[C@@H](C(=O)N[C@H](C(=O)N2CCC[C@H]2C(=O)N[C@@H](Cc2c[nH]c3ccccc23)C(=O)N[C@@H](CC(=O)O)C(=O)N2CCC[C@H]2C(=O)NCC(=O)NCC(=O)NCC(=O)N[C@@H](CCCCN)C(N)=O)C(C)C)NC(=O)[C@H](Cc2ccccc2)NC(=O)[C@H](CCCNC(=N)N)NC(=O)[C@H]([C@@H](C)O)NC(=O)[C@H](C(C)C)NC(=O)[C@H](CO)NC(=O)[C@H](CC(=O)O)NC(=O)[C@H](CO)NC(=O)[C@H](CC(C)C)NC(=O)[C@H](CCC(=O)O)NC(=O)[C@H](Cc2c[nH]cn2)NC1=O [P15-D] (Ac-GDYPWCHELSDSVTRFCVPWDPGGGK-NH2; disulfide 6-17) | did not produce significant inhibition of KDR activation |  |
| CSCC[C@H](NC(=O)[C@H](Cc1c[nH]cn1)NC(=O)[C@H](CC(=O)O)NC(=O)[C@H](CC(=O)O)NC(=O)CNC(C)=O)C(=O)N[C@H]1CSSC[C@@H](C(=O)N[C@@H](CCSC)C(=O)N[C@@H](Cc2ccc(O)cc2)C(=O)N[C@@H](Cc2c[nH]c3ccccc23)C(=O)N[C@@H](CC(=O)O)C(=O)N2CCC[C@H]2C(=O)NCC(=O)NCC(=O)NCC(=O)N[C@@H](CCCCN)C(N)=O)NC(=O)[C@H](Cc2ccccc2)NC(=O)[C@H](C(C)C)NC(=O)[C@H](Cc2c[nH]cn2)NC(=O)[C@H](CC(=O)O)NC(=O)[C@H](CCC(N)=O)NC(=O)[C@H](Cc2ccc(O)cc2)NC(=O)[C@H](CC(=O)O)NC(=O)[C@@H]2CCCN2C(=O)[C@H](CO)NC(=O)[C@H](CCCNC(=N)N)NC1=O [P16-D] (Ac-GDDHMCRSPDYQDHVFCMYWDPGGGK-NH2; disulfide 6-17) | did not produce significant inhibition of KDR activation |  |
| CC(=O)NCC(=O)N[C@@H](CC(=O)O)C(=O)N1CCC[C@H]1C(=O)N1CCC[C@H]1C(=O)N[C@@H](CC(C)C)C(=O)N[C@H]1CSSC[C@@H](C(=O)N[C@@H](CC(N)=O)C(=O)N2CCC[C@H]2C(=O)N[C@@H](Cc2ccccc2)C(=O)N[C@@H](CC(=O)O)C(=O)N2CCC[C@H]2C(=O)NCC(=O)NCC(=O)NCC(=O)N[C@@H](CCCCN)C(N)=O)NC(=O)[C@H](Cc2c[nH]cn2)NC(=O)[C@H](Cc2c[nH]cn2)NC(=O)[C@H](Cc2c[nH]c3ccccc23)NC(=O)[C@H](CCC(=O)O)NC(=O)[C@H](CCC(N)=O)NC(=O)[C@H]([C@@H](C)O)NC(=O)CNC(=O)[C@H](C(C)C)NC(=O)[C@H](Cc2ccccc2)NC(=O)[C@H](Cc2ccc(O)cc2)NC1=O [P17-D] (Ac-GDPPLCYFVGTQEWHHCNPFDPGGGK-NH2; disulfide 6-17) | did not produce significant inhibition of KDR activation |  |
| CSCC[C@@H]1NC(=O)[C@H](CCC(=O)O)NC(=O)[C@@H](NC(=O)[C@H](Cc2c[nH]c3ccccc23)NC(=O)[C@H](CO)NC(=O)CNC(=O)[C@H](CC(=O)O)NC(=O)CNC(C)=O)CSSC[C@@H](C(=O)N[C@@H](Cc2ccccc2)C(=O)N[C@@H](CO)C(=O)N[C@@H](CC(=O)O)C(=O)N[C@@H](CC(=O)O)C(=O)N2CCC[C@H]2C(=O)NCC(=O)NCC(=O)NCC(=O)N[C@@H](CCCCN)C(N)=O)NC(=O)[C@H](CC(N)=O)NC(=O)[C@H](Cc2c[nH]c3ccccc23)NC(=O)[C@H](CCCCNC(CC(C)C)=C2C(=O)CC(C)(C)CC2=O)NC(=O)CNC(=O)[C@H](C(C)C)NC(=O)[C@H](CC(=O)O)NC(=O)[C@H](CCC(N)=O)NC(=O)[C@H](CCCNC(=N)N)NC1=O [P18-E] (Ac-GDGSWCEMRQDVG[Lys(ivDde)]WNCFSDDPGGGK-NH2; disulfide 6-17) | did not produce significant inhibition of KDR activation |  |
